# Measurements: ChEMBL document CHEMBL1255216, “Exploration of the amine terminus in a novel series of 1,2,4-triazolo-3-yl-azabicyclo[3.1.0]hexanes as selective dopamine D3 receptor antagonists” (J Med Chem, 2010)
# Legend:
# D(3) dopamine receptor = D(3) dopamine receptor (Homo sapiens, UniProt P35462); experiment: Antagonist activity at human dopamine D3 expressed in CHO cells assessed as inhibition of quinelorane-induced [35S]GTPgammaS binding; format: functional, cell-based
# D(2) dopamine receptor = D(2) dopamine receptor (Homo sapiens, UniProt P14416); experiment: Antagonist activity at human dopamine D2L receptor expressed in CHO cells assessed as inhibition of quinelorane-induced [35S]GTPgammaS binding; format: functional, cell-based
# [1] = biological target: Voltage-gated inwardly rectifying potassium channel KCNH2 (Homo sapiens, UniProt Q12809)
# Cytochrome P450 1A2 = biological target: T1, Cytochrome P450 1A2 (Homo sapiens, UniProt P05177)
# T1 sequence (P05177 whole entry): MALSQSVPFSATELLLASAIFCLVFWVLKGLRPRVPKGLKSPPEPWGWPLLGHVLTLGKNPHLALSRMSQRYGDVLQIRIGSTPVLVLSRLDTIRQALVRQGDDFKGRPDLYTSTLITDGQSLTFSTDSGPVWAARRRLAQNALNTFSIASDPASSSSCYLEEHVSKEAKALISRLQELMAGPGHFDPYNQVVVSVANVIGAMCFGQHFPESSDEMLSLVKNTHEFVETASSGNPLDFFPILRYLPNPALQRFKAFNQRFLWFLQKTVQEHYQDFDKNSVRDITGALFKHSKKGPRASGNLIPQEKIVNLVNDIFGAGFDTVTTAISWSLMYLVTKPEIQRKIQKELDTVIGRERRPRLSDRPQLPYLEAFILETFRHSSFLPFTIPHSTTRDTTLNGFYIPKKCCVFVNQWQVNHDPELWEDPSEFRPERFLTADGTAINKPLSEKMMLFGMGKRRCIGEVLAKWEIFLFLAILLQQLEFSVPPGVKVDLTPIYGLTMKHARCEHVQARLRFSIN
# Description: Inhibition of human CYP1A2
# Cytochrome P450 2C9 = Cytochrome P450 2C9 (Homo sapiens, UniProt P11712)
# Description: Inhibition of human CYP2C9
# Cytochrome P450 2C19 = Cytochrome P450 2C19 (Homo sapiens, UniProt P33261)
# Description: Inhibition of human CYP2C19
# Cytochrome P450 2D6 = Cytochrome P450 2D6 (Homo sapiens, UniProt P10635)
# Description: Inhibition of human CYP2D6
# Cytochrome P450 3A4 = Cytochrome P450 3A4 (Homo sapiens, UniProt P08684)
# Description: Inhibition of human CYP3A4
# Liver microsomes [2] = conditions: human, 0.5 h, 0.5 µM
# Liver microsomes [3] = conditions: rat, 0.5 h, 0.5 µM
# Sequence of D(3) dopamine receptor (P35462 whole entry): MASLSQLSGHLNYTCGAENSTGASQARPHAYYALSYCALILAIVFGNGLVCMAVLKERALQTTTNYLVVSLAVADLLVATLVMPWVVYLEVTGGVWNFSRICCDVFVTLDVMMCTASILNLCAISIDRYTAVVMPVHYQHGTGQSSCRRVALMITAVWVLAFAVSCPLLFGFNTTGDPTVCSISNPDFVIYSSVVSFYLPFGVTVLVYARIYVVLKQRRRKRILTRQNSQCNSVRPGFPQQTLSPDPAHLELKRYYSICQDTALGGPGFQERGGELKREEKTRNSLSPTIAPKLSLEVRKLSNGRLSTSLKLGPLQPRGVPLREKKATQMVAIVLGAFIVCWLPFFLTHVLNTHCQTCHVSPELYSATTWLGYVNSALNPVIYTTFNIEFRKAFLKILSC
# Sequence of D(2) dopamine receptor (P14416 whole entry): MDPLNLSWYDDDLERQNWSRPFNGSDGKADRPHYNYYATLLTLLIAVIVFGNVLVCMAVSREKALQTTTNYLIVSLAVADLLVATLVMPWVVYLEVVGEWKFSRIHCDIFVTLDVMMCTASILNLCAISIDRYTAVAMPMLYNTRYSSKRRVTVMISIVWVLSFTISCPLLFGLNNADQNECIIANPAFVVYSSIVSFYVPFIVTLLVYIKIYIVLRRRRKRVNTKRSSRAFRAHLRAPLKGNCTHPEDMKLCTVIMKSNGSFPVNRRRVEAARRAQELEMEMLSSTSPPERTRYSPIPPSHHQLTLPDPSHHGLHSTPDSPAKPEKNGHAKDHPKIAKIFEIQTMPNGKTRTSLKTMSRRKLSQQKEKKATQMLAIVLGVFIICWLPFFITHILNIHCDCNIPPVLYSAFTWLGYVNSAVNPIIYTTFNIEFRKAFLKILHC
# Sequence of Cytochrome P450 3A4 (P08684 whole entry): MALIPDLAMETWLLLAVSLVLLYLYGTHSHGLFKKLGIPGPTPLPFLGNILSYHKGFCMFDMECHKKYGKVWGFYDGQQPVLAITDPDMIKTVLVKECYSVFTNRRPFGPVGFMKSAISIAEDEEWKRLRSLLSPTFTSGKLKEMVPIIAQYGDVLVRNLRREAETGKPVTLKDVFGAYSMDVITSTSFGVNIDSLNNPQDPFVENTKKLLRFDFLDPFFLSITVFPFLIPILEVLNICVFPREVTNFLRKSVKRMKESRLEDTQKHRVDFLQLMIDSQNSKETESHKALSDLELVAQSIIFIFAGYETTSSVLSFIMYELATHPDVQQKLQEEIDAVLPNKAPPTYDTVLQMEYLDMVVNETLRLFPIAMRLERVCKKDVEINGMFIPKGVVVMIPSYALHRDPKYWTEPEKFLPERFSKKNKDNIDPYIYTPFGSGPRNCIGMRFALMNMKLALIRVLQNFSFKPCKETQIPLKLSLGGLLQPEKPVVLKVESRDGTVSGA
# Sequence of Voltage-gated inwardly rectifying potassium channel KCNH2 (Q12809 whole entry): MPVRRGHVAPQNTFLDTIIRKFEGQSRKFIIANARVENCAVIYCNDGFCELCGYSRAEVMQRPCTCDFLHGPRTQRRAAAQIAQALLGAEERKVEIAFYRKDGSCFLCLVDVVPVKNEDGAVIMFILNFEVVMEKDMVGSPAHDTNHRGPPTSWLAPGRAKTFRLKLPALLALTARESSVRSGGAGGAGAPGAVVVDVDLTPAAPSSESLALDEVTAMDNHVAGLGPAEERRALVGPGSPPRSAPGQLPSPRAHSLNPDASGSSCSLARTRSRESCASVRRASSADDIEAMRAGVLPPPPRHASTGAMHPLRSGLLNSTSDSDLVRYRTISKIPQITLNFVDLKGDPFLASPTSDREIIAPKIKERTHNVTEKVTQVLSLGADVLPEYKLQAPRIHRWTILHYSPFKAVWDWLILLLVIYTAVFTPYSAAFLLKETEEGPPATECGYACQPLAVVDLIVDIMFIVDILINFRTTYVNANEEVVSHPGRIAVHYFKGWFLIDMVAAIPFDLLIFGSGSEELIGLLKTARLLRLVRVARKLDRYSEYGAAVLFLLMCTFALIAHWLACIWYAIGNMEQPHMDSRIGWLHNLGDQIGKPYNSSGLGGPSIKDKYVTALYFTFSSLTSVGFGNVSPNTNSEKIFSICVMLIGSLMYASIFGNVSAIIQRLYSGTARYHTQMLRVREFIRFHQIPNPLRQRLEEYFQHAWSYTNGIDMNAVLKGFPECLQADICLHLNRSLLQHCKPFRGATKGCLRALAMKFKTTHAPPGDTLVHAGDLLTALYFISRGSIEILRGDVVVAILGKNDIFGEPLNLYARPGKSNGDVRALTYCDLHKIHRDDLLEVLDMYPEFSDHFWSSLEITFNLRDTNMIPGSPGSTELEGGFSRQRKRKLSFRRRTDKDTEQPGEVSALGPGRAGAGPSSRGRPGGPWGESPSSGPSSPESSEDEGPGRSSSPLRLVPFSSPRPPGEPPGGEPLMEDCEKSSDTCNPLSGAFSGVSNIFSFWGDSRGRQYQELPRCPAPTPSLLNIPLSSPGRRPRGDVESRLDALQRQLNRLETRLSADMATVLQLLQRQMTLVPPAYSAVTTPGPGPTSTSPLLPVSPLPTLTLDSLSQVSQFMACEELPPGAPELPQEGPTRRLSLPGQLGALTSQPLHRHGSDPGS
# Sequence of Cytochrome P450 2D6 (P10635 whole entry): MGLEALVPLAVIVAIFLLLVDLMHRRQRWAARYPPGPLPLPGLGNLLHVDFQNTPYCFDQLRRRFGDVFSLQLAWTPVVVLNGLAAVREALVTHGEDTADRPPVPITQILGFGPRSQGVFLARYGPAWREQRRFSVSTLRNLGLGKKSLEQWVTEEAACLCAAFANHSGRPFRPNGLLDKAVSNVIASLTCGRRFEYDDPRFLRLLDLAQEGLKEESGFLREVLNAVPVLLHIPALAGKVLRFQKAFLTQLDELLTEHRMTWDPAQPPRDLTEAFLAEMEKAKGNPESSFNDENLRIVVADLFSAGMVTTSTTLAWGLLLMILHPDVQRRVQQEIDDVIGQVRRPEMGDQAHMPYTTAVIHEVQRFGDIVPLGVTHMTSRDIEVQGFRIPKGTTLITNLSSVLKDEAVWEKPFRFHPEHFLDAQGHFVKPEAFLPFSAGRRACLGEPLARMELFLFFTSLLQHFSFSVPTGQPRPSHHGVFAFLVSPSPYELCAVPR
# Sequence of Cytochrome P450 2C19 (P33261 whole entry): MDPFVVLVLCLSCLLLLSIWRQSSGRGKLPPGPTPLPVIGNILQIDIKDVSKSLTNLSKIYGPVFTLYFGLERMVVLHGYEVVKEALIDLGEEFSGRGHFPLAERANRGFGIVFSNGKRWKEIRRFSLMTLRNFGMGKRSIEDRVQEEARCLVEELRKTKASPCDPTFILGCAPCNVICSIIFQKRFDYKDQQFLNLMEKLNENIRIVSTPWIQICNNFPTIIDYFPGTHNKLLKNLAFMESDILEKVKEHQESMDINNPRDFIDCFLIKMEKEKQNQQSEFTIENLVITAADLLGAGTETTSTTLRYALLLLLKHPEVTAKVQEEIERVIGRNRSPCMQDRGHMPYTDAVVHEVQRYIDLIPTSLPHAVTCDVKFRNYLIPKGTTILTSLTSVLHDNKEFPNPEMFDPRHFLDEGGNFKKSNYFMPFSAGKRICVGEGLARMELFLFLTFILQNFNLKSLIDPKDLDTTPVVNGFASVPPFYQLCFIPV
# Sequence of Cytochrome P450 2C9 (P11712 whole entry): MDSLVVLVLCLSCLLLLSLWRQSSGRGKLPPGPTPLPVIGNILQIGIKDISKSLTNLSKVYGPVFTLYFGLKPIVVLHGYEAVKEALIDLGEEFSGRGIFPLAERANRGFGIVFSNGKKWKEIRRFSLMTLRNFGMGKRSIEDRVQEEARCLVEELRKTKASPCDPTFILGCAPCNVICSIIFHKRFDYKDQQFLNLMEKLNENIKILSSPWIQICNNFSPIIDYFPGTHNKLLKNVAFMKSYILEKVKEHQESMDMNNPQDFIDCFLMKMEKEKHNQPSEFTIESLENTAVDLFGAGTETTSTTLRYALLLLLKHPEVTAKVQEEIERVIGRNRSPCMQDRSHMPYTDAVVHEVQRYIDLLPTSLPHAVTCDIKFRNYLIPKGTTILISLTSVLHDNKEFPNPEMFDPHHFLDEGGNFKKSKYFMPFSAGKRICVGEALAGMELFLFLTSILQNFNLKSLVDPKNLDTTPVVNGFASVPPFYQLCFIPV
Compound,Ki (D(3) dopamine receptor) [nM],Ki (D(2) dopamine receptor) [nM],further results
Cc1nc(C)c(-c2nnc(SCCCN3CCC4(CCc5ccc(F)cc54)C3)n2C)s1 (centres undefined),50.1,398,IC50 [1]: 6310 nM
Cc1ncoc1-c1nnc(SCCCN2[C@@H]3CC[C@H]2C[C@@H](c2ccc(C(C)(C)C)cc2)C3)n1C,0.631,398,IC50 (Cytochrome P450 1A2): > 5000 nM; IC50 (Cytochrome P450 2C9): > 5000 nM; IC50 (Cytochrome P450 2C19): > 5000 nM; IC50 (Cytochrome P450 2D6): > 5000 nM; IC50 (Cytochrome P450 3A4): > 5000 nM; CL (Liver microsomes [2]): 0.9 mL/min/g; CL (Liver microsomes [3]): 7.9 mL/min/g
Cc1ncoc1-c1nnc(SCCCNC2CC3CC3(c3ccccc3)C2)n1C (centres undefined),50.1,251,
Cc1ncoc1-c1nnc(SCCCN2[C@@H]3CC[C@H]2C[C@@H](c2ccc(C(F)(F)F)cc2)C3)n1C,10,398,
Cc1ncoc1-c1nnc(SCCCN2[C@@H]3CC[C@H]2C[C@@H](c2ccc(C(F)(F)F)cc2F)C3)n1C,6.31,> 3160,
Cc1ncoc1-c1nnc(SCCCN2CCC3(CCCc4cc(Br)ccc43)C2)n1C (centres undefined),7.94,,
Cc1ncoc1-c1nnc(SCCCN2CCC3(CCCc4ccc(Br)cc43)C2)n1C (centres undefined),15.8,316,
COc1ccc2c(c1)CCCC21CCN(CCCSc2nnc(-c3ocnc3C)n2C)C1 (centres undefined),100,1000,
COc1cccc2c1CCCC21CCN(CCCSc2nnc(-c3ocnc3C)n2C)C1 (centres undefined),79.4,398,
COc1ccc2c(c1)C1(CCC2)CCN(CCCSc2nnc(-c3ocnc3C)n2C)C1 (centres undefined),31.6,,
Cc1nc(C)c(-c2nnc(SCCCN3CCC4(CCc5cc(Cl)ccc54)C3)n2C)s1 (centres undefined),31.6,398,IC50 [1]: 2510 nM
"Cc1ncoc1-c1nnc(SCCCNC2CC[C@]3(c4ccc(C(F)(F)F)cc4)CC23)n1C (single isomer, unassigned)",251,> 3160,IC50 [1]: 2510 nM
Cc1ncoc1-c1nnc(SCCCN[C@@H]2CC[C@]3(c4ccc(C(F)(F)F)cc4)CC23)n1C (stereo in doubt; 22),126,> 3160,IC50 [1]: 251 nM
Cc1ncoc1-c1nnc(SCCCN[C@@H]2CC[C@]3(c4ccc(C(F)(F)F)cc4)CC23)n1C (stereo in doubt; 24),3.98,501,IC50 [1]: 631 nM; IC50 (Cytochrome P450 1A2): > 4000 nM; IC50 (Cytochrome P450 2C9): > 4000 nM; IC50 (Cytochrome P450 2C19): > 4000 nM; IC50 (Cytochrome P450 2D6): > 4000 nM; IC50 (Cytochrome P450 3A4): > 4000 nM; CL (Liver microsomes [2]): < 0.5 mL/min/g; CL (Liver microsomes [3]): < 0.5 mL/min/g
CCOc1ccc2c(c1)Oc1cc(OCC)ccc1C21OC(=O)c2ccccc21 [DIETHOXYFLOURESCEIN],,,IC50 (Cytochrome P450 3A4): 1000 nM

# Further lines, with some results ahead:
Ki (D(3) dopamine receptor) [nM],Ki (D(2) dopamine receptor) [nM],Compound,further results
126,398,Cc1ncoc1-c1nnc(SCCCN2CCC3CC3(c3ccccc3)C2)n1C (centres undefined),
158,,Cc1ncoc1-c1nnc(SCCCN2CCC3(c4ccccc4)CC3C2)n1C (centres undefined),
7.94,501,Cc1ncoc1-c1nnc(SCCCN2CCC3CC3(c3ccc(C(F)(F)F)cc3)C2)n1C (centres undefined),IC50 [1]: 2000 nM
39.8,,Cc1ncoc1-c1nnc(SCCCN2CCC3(c4ccc(C(F)(F)F)cc4)CC3C2)n1C (centres undefined),
12.6,,Cc1ncoc1-c1nnc(SCCCN2CCC3CC3(c3cccc(C(F)(F)F)c3)C2)n1C (centres undefined),
6.31,2510,Cc1ncoc1-c1nnc(SCCCN2CCC3(c4cccc(C(F)(F)F)c4)CC3C2)n1C (centres undefined),
3.98,100,Cc1ncoc1-c1nnc(SCCCN2CCC3CC3(c3ccc(C(F)(F)F)cc3)CC2)n1C (centres undefined),
10,,Cc1nc(C)c(-c2nnc(SCCCN3CCC4CC4(c4ccc(C(F)(F)F)cc4)CC3)n2C)o1 (centres undefined),
3.98,200,Cc1nc(C)c(-c2nnc(SCCCN3CCC4CC4(c4ccc(C(F)(F)F)cc4)CC3)n2C)s1 (centres undefined),IC50 [1]: 631 nM
3.98,398,Cn1c(SCCCN2CCC3CC3(c3ccc(C(F)(F)F)cc3)CC2)nnc1-c1ccnnc1 (centres undefined),
3.16,200,Cc1ncoc1-c1nnc(SCCCN[C@@H]2CC[C@]3(c4ccc(C(F)(F)F)cc4F)CC23)n1C (some centres undefined),IC50 [1]: 631 nM
31.6,> 3160,Cc1ncoc1-c1nnc(SCCCN[C@@H]2CC3C[C@]3(c3ccc(C(F)(F)F)cc3F)C2)n1C (some centres undefined),
100,> 3160,Cc1ncoc1-c1nnc(SCCCN2CCC3(CCOc4ccccc43)C2)n1C (centres undefined),
5.01,126,Cc1ncoc1-c1nnc(SCCCN2CCC3(CCc4cc(Br)ccc43)C2)n1C (centres undefined),
7.94,251,Cc1ncoc1-c1nnc(SCCCN2CCC3(CCc4c(Br)cccc43)C2)n1C (centres undefined),
2.51,39.8,Cc1ncoc1-c1nnc(SCCCN2CCC3(CCc4ccc(Br)cc43)C2)n1C (centres undefined),
158,100,Cc1ncoc1-c1nnc(SCCCN2CCC3(CCc4cc(F)ccc43)C2)n1C (centres undefined),
